Assays:
[1] = molecular target: T1, α1 receptors (Rattus norvegicus, UniProt P23944); experiment: alpha1 antagonism in rat aorta (norepinephrine); type: biochemical
T1 construct: their external jugular veins and thoracic aortas dissected free of connective tissue; from tissue; host or cells: thoracic aorta of male Wistar rats
T1 sequence (P23944 1-561): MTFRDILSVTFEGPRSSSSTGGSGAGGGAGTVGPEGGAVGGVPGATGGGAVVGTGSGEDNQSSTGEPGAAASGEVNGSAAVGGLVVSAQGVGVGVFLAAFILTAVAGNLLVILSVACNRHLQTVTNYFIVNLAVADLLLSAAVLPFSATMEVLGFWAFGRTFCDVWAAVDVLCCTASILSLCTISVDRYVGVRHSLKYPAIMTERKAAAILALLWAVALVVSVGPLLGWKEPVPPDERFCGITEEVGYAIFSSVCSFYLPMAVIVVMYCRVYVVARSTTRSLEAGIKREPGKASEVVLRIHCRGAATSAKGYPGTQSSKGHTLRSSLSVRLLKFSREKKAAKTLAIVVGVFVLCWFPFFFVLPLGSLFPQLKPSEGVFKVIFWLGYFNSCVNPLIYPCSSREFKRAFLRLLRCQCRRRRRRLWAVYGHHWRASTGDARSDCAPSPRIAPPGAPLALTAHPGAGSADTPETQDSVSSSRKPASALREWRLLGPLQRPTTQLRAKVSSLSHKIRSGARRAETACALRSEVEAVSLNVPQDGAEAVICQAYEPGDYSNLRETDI
Experimental: (§1) An initial optimum resting force of 1 and 4 g was applied to the jugular vein and aorta, respectively. […] Exp. Ther., 205, 400 (1978) and Cohen, Colbert and Wittenauer, Drug Dev. Res., 5 513 (1985) for descriptions of the procedures employed. Alpha receptor antagonist activity was evaluated in the aorta (α1) or guinea pig ileum (α2).
(§2) The -log KB values obtained for 4-hydroxycyclohexyl 1-isopropyl-9,10-dihydrolysergate, isomer mixture (racemate) and pure isomers (cis and trans referring to stereochemistry of the hydroxycyclohexyl group) plus standard error against 5HT2 receptors are given below in Table 1.
(§3) The in vitro rat aorta preparation described above was used for α1 -receptors and the guinea pig ileum for α2 -receptors. ED50 (median effective dose) for norepinephrine was determined in the presence of a 10-5 molar dose of the test compound and this ED50 compared to a control ED50.

[2] = molecular target: T2, α2 receptors (Cavia porcellus, UniProt Q60474); experiment: alpha2 antagonism in guinea pig ileum; type: biochemical
T2 construct: Alpha receptor antagonist activity was evaluated in the aorta (α1) or guinea pig ileum (α2); from tissue; host or cells: guinea pig ileum
T2 sequence (Q60474 1-464): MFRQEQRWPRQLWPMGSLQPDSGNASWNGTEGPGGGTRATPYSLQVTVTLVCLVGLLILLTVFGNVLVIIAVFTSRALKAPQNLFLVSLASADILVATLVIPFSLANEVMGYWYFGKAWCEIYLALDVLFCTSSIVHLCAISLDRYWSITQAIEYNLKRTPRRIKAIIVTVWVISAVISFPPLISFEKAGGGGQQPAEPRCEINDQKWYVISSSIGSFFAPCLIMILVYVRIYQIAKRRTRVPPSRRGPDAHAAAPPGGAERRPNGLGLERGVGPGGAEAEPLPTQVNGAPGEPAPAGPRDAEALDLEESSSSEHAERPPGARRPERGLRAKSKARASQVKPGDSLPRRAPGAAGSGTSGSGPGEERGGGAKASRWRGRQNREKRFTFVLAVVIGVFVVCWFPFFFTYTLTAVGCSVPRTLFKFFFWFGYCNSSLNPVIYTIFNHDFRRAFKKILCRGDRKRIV
Experimental: as §1, §2, §3

[3] = test system: 5HT2 receptors; experiment: pressor response to serotonin in pithed SHR after oral treatment; type: in vivo, spontaneously hypertensive rats (SHR); conditions: for Curve Shift Relative to trans: pithed SHR
Experimental: (§4) SHR were anesthesized with halothane, femoral arterial and venous catheters were implanted as before and the trachea was cannulated. Each rat was pithed by passing a steel rod through the right orbit and down the entire length of the spinal column. The steel rod remained in place for the duration of the experiment. Immediately after pithing, the rats were ventilated with room air. An equilibration period of 15 minutes was observed prior to control measurements and administration of drugs or vehicle p.o. Increasing doses of serotonin or the alpha2 agonist clonidine were injected i.v. one or six hours after oral treatment with the […]. The response was recorded and the blood pressure allowed to recover to control levels after serotonin. Cumulative dose-response curves to clonidine were determined. The test drug solution was prepared fresh daily. Tables 5 and 6 give the results of these determinations at a dose level of 0.1 mg/kg.
^a Conscious spontaneously hypertensive rats (SHR) were treated orall
1 hour before anesthesia, pithing and determination of pressordose
response curves to multiple doses of 5HT iv (n= 4-10/group).
^b Dose of 5HT required to increase mean arterial blood pressure by 5
6 hours before anesthesia, pithing and determination of pressordose
response curves to multiple doses of 5HT iv (n = 4-10/group).

[4] = molecular target: T3, 5HT2 receptors (Rattus norvegicus, UniProt P14842); experiment: antagonism of serotonin contraction in rat external jugular vein (5HT2, apparent dissociation constant); type: biochemical, rat (male Wistar); parameters: their external jugular veins and thoracic aortas dissected free of connective tissue; from tissue; host or cells: external jugular vein of male Wistar rats; conditions: antagonist incubated one hour, 37° C., read-out: -log KB (Log Kb ± S.E.), 5HT2 receptors (converted)
Experimental: Compounds according to formula I have an extremely high affinity for 5HT2 receptors, with a much lower affinity for alpha receptors. Ratios of relative dissociation constants for interaction with alpha to 5HT2 receptors are of the order of 200,000-300,000 indicating dramatic selectivity for 5HT2 receptors. The apparent dissociation constants (KB) are a measure of affinity for 5HT2 and alpha receptors and are expressed as the negative logarithm and are determined according to the following protocol.
as §1, §2

[5] = molecular target: T4, Histamine (Cavia porcellus, UniProt P31389); experiment: histamine contraction in guinea pig trachea; type: biochemical
T4 construct: histamine or carbamyl choline (muscarinic) contraction in guinea pig trachea; from tissue; host or cells: guinea pig trachea
From the text: (§5) The compounds of this invention also lack demonstrable effects against histamine or carbamyl choline (muscarinic) contraction in guinea pig trachea, using standard procedures.

[6] = molecular target: T5, Muscarinic (Cavia porcellus, UniProt H0W1Z3); experiment: carbamyl choline (muscarinic) contraction in guinea pig trachea; type: biochemical
T5 construct: histamine or carbamyl choline (muscarinic) contraction in guinea pig trachea; from tissue; host or cells: guinea pig trachea
From the text: as §5

[7] = molecular target: 5HT1 receptors; experiment: Rat Cortical Membrane Binding, 5HT1; conditions: rat cortical membranes; read-out: Rat Cortical Membrane Binding IC50, 5HT
[8] = molecular target: T3, 5HT2 receptors; experiment: biochemical
From the text: The procedures employed are those set forth in Cohen, Colbert and Wittenauer (loc. cit.) for other tissues.

[9] = blood pressure and heart rate in spontaneously hypertensive rats; type: in vivo; conditions: SHR, oral, 10 mg/kg
[10] = test system: alpha2 receptors; experiment: alpha2 antagonism (clonidine pressor response) in pithed SHR after oral treatment; type: in vivo, spontaneously hypertensive rats (SHR)
Experimental: as §4, with “Tables 5 and 6 give the results of these determinations at a dose level of 0.1 mg/kg.” left out

[11] = test system: migraine; conditions: clinical trial, Lance I, Table 1; cited from earlier work
[12] = test system: 5HT2 receptors; conditions: Cohen I; cited from earlier work
[13] = test system: vascular alpha adrenergic receptors; conditions: Cohen I; cited from earlier work
[14] = test system: vascular dopaminergic receptors; conditions: Cohen I; cited from earlier work
[15] = test system: vascular histaminergic receptors; conditions: Cohen I; cited from earlier work
[16] = test system: receptors other than 5HT2 receptors, particularly peripheral alpha2 receptors; conditions: cited from earlier work
[17] = test system: migraine; conditions: Sulman; cited from earlier work
[18] = test system: 5HT receptor; conditions: cited from earlier work; for 5HT receptor activity (agonist/antagonist) in words: literature
[19] = test system: dopaminergic; conditions: literature; cited from earlier work
[20] = test system: alpha-receptors; conditions: literature; cited from earlier work
[21] = Berde; cited from earlier work
[22] = test system: cranial arteries; conditions: with noradrenaline, migraine attack, Aellig; cited from earlier work
[23] = literature; cited from earlier work
[24] = test system: 5HT2; conditions: Awouters; cited from earlier work

T3 sequence (P14842 whole entry): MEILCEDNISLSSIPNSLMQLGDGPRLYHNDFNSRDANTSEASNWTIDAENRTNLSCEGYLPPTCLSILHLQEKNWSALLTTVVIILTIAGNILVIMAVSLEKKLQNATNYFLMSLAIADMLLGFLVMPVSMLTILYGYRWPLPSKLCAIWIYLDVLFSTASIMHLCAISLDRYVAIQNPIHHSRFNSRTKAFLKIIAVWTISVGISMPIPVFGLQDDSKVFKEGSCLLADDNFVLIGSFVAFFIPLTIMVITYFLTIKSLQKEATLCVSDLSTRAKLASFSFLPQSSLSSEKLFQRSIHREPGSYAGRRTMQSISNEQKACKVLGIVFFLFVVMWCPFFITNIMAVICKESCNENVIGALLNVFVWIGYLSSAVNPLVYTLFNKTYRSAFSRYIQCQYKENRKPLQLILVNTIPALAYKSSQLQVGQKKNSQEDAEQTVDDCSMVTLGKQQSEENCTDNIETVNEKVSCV
T5 sequence (H0W1Z3 1-590): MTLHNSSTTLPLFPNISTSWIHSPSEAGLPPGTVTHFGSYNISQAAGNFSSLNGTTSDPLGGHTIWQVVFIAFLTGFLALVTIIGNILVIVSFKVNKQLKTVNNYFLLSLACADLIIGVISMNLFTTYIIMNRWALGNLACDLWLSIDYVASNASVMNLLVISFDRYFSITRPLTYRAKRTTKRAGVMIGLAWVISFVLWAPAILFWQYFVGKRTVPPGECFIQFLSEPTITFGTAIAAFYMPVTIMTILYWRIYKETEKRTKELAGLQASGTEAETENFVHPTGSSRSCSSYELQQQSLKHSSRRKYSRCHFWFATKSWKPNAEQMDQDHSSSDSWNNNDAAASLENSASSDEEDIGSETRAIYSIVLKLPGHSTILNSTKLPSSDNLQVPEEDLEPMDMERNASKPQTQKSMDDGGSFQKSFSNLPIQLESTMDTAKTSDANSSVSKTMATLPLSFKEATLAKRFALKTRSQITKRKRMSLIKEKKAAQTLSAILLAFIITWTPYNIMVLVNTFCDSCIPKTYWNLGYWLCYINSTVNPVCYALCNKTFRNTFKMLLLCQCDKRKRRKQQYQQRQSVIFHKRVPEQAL
T4 sequence (P31389 whole entry): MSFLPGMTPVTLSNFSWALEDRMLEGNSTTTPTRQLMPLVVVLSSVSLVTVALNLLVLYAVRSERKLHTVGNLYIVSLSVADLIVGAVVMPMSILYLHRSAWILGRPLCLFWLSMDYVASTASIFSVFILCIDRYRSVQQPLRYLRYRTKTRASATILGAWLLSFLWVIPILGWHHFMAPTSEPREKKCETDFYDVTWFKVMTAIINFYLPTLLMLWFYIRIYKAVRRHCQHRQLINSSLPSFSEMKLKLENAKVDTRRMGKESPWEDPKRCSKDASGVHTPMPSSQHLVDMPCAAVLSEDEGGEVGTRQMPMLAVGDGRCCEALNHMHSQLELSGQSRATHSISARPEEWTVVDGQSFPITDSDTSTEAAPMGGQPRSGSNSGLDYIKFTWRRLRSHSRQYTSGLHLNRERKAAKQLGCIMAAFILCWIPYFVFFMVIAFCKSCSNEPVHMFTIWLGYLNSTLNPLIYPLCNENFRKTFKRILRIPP

SMILES: CC(C)n1cc2c3c(cccc31)[C@H]1C[C@@H](C(=O)O[C@H]3CC[C@@H](O)CC3)CN(C)[C@@H]1C2 (mixture of isomers) [cis, cis-(±)-4-hydroxycyclohexyl 1-isopropyl-9,10-dihydrolysergate]
- Kb [1]: 4470 nM
- Kb [2]: 155 nM
- curve shift ([3]; 0.3 mg/kg po): 6.7
- dose of 5HT required to increase mean arterial BP by 50 mmHg ([3]; 0.3 mg/kg po): 1800
- Curve Shift Relative to trans ([3]; one hour after oral 0.1 mg/kg): 11.6
- Curve Shift Relative to trans ([3]; six hours after oral 0.1 mg/kg): 24.3
- Kb [4]: 0.112 nM

SMILES: CC(C)n1cc2c3c(cccc31)[C@H]1C[C@@H](C(=O)OC3CCC(O)CC3)CN(C)[C@@H]1C2 (mixture of isomers) [mixture, 4-hydroxycyclohexyl 1-isopropyl-9,10-dihydrolysergate]
- Kb [1]: 14500 nM
- Kb [2]: 117 nM
- Kb [5]: > 10000 nM
- Kb [6]: > 10000 nM
- IC50 [7]: 530 nM
- IC50 [8]: 3 nM
- effect on blood pressure or heart rate [9]: no effect on blood pressure or heart rate
- Curve Shift Relative to trans ([3]; one hour after oral 0.1 mg/kg): 3.6
- Curve Shift Relative to trans ([3]; six hours after oral 0.1 mg/kg): 5.5
- alpha2 antagonist activity in pithed rats ([10]; 100 mg/kg dose level po): slight
- specificity (5HT2 vs alpha2) in vivo compared with in vitro ([10]; pithed rats, po): greater specificity
- Kb [4]: 0.0661 nM

SMILES: CN1CCC(=C2c3ccccc3CCc3sccc32)CC1 [BC105]
- Improvement rate in migraine [11]: 50%

SMILES: CC(O)C(C)OC(=O)[C@@H]1C[C@@H]2c3cccc4c3c(cn4C(C)C)C[C@H]2N(C)C1 (stereo partly drawn) [LY53857, 1-isopropyl-6-methyl-8β-(1-methyl-2-hydroxy)propoxycarbonyl-5R-ergoline]
- antagonism of vascular contraction to serotonin [12]: potent antagonist
- affinity, vascular alpha adrenergic receptors [13]: minimal affinity
- affinity, vascular dopaminergic receptors [14]: minimal affinity
- affinity, vascular histaminergic receptors [15]: minimal affinity
- effect on receptors other than 5HT2 [16]: lack of effect

SMILES: CN1CCC(=C2c3ccccc3C=Cc3ccccc32)CC1 [cyproheptadine]
- Improvement rate in migraine [11]: 43%

SMILES: CN1CCC(=C2c3ccccc3C(O)c3ccccc32)CC1 (stereo not shown) [danitracene]
- pharmacological effects [17]: antiserotonin, antihistamine and antidepressive affects

SMILES: C[C@@H](CO)NC(=O)[C@@H]1C=C2c3cccc4[nH]cc(c34)C[C@H]2N(C)C1 [ergonovine]
- 5HT receptor activity (agonist/antagonist) in words [18]: 5HT agonist and selective and fairly potent 5HT antagonist in smooth muscle and highly active 5HT antagonist in the uterus
- dopaminergic activity in words [19]: weak dopaminergic antagonist

SMILES: CN1C[C@H](C(=O)N[C@]2(C)O[C@@]3(O)[C@@H]4CCCN4C(=O)[C@H](Cc4ccccc4)N3C2=O)C=C2c3cccc4[nH]cc(c34)C[C@H]21 [ergotamine]
- 5HT receptor activity (agonist/antagonist) in words [18]: 5HT agonists at low concentrations but antagonistic at higher concentrations
- alpha receptor activity in words [20]: both a partial alpha-agonist and an alpha-antagonist
- pressor and emetic activity [21]: most active compound only in pressor and emetic activity
- constriction of cranial arteries [22]: act together to constrict cranial arteries

SMILES: CCN(CC)C(=O)N[C@H]1C=C2c3cccc4[nH]cc(c34)C[C@H]2N(C)C1 [lysenyl, N-D-6-methylisoergolenyldiethylcarbamide]
- Improvement rate in migraine [11]: 34%

SMILES: CN1CCC(CN2c3ccccc3Sc3ccccc32)C1 (stereo not shown) [methdilazine]
- Improvement rate in migraine [11]: 45%

SMILES: CC[C@@H](CO)NC(=O)[C@@H]1C=C2c3cccc4c3c(cn4C)C[C@H]2N(C)C1 [methysergide]
- 5HT receptor blockade rating ([18]; Berde, most active compound = 1,000): 1,000
- 5HT receptor activity (agonist/antagonist) in words [18]: 5HT agonists at low concentrations but antagonistic at higher concentrations and partial 5HT agonist in certain blood vessels and very potent 5HT antagonist in the CNS
- alpha receptor activity in words [20]: little or no action on alpha-receptors
- oxytocic action [23]: no oxytocic action
- Improvement rate in migraine [11]: 64%
- 5HT2 agonist activity and side effects [24]: responsible for some of the side effects

SMILES: CC(C)n1cc2c3c(cccc31)[C@H]1C[C@@H](C(=O)O[C@H]3CC[C@H](O)CC3)CN(C)[C@@H]1C2 [trans, trans-4-hydroxycyclohexyl 1-isopropyl-9,10-dihydrolysergate]
- Kb [1]: 1950 nM
- Kb [2]: 66.1 nM
- Kb [5]: > 10000 nM
- Kb [6]: > 10000 nM
- IC50 [7]: 390 nM
- IC50 [8]: 0.7 nM
- potency of trans isomer relative to cis isomer ([3]; by extrapolation, po): 3 X
- Kb [4]: 0.0955 nM
